Source: ChEMBL document CHEMBL1127025, “(E)-3-[[[[6-(2-carboxyethenyl)-5-[[8-(4- methoxyphenyl)octyl]oxy]-2-pyridinyl]-methyl]thio]methyl]benzoic acid: a novel high-affinity leukotriene B4 receptor antagonist” (J Med Chem, 1993)

How the values were obtained:
[1] = molecular target: T1, Leukotriene B4 receptor 1 (Homo sapiens, UniProt Q15722); assay: Binding affinity against LTB4 receptors in human PMNs
Mus musculus [2] = organism: Mus musculus; assay: Inhibition of LTB4-induced PMN infiltration at 250 ng/mL in mouse; type: functional
[3] = molecular target: T1, Leukotriene B4 receptor 1; assay: Inhibitory concentration against LTB4 receptors in human PMNs
Mus musculus [4] = assay: Effective dose for neutrophil infiltration after administration of 1 mg of arachidonic acid in mouse ear; type: functional
Mus musculus [5] = assay: Effective dose for edematous response after administration of 1 mg of arachidonic acid in mouse ear; type: functional
Homo sapiens = organism: Homo sapiens; assay: Inhibitory concentration against LTB4 induced degranulation in human PMNs; type: functional

T1 sequence (Q15722 whole entry): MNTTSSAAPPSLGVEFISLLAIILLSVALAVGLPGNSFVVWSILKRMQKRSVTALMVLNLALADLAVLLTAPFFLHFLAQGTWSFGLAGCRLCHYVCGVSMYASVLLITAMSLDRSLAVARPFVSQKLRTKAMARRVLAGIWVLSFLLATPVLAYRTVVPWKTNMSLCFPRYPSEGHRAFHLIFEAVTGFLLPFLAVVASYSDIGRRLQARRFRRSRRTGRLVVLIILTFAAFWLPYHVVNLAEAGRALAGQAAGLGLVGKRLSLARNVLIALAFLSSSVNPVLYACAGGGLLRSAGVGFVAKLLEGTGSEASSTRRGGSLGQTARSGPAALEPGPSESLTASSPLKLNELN

Ki [1]	IC50 [3]	IC50 (Homo sapiens)	SMILES	ED50 (Mus musculus [2])	ED50 (Mus musculus [4])	ED50 (Mus musculus [5])
7.1 nM	131 nM	268 nM	COc1ccc(CCCCCCCCOc2ccc(CSCc3cccc(C(=O)O)c3)nc2/C=C/C(=O)O)cc1	7.1 mg/kg	0.39 mg ear-1	0.58 mg ear-1
280 nM			CCCCCCCCCCOc1ccc(CC(O)c2cccc(C(=O)O)c2)nc1/C=C/C(=O)O (configuration not stated)			
